Experiment [1] concerns HCT 116 adenocarcinoma cells. Put plainly: MTT cell survival after PCI-induced transduction with AdV-TK and ganciclovir. The experiment is classed as cell-based, human. On the procedure:
HCT 116 adenocarcinoma cells were infected with an adenovirus gene therapy vector encoding the HSV-tk gene (AdV-TK) and subjected to PCI-treatment. Conditions for infection were as described under “Experimental protocols” (MOI=5). 2 days after infection, different concentrations of ganciclovir (GCV) was added, and the cells were incubated further for 3 days before analysis of cell survival by the MTT method. This method is based on reduction of a water-soluble tetrazolium salt (MTT) to a purple, insoluble formazan product by mitochondrial dehydrogenases present in living, metabolically active cells. One ml medium containing […] is added to the cells, followed by 4 h incubation (37° C., 5% v/v CO2). The resulting formazan crystals are dissolved by adding 200 μl isopropanol (Sigma, Mo., USA) per well. The solution is transferred to a 96 wells plate which is read by a Multiskan EX microplate reader (Labsystems, Finland) with a 570 nm bandpass filter.

For experiment [2], the system named is human WiDr adenocarcinoma cells. In words: X-gal staining of photochemically transduced WiDr cells. The experiment is classed as cell-based. As to conditions: AlPcS2a and light, no adenovirus. The method, then: 50 000 cells per well were seeded in 6-well plates (Costar,) and incubated overnight at 37° C. 1 ml medium containing […] AlPcS2a (Phorphyrin Products, Logan, Utah) was added, the cells were incubated for 18 h at 37° C., washed three times with medium and incubated for another 3 h at 37° C. The medium was removed and 200 μl of AdHCMV-lacZ was added. After incubation for 30 min at 37° C., 2 ml medium was added and the cells were incubated for 30 min before exposure to red light (Phillips TL 20 W/09, filtered through a Cinemoid 35 filter, with a light intensity reaching the cells of 13.5 W/m2). Before analysis of β-galactosidase activity the cells were incubated at 37° C. for two days.
For X-gal (5-bromo-4 chloro 3 indolyl-β-D-galactopyranoside) staining the medium was discarded, 1 ml of fixative solution (0,05% glutaraldehyde in PBS) was added and the cells were incubated at room temperature for 15 min. The fixative solution was discarded and the cells were washed three times in PBS at room temperature (second rinse was for 10 min, first and third rinses were performed quickly). 1 ml X-gal solution (5 mM K3Fe(CN)6, 5 mM K4Fe(CN)6, 1 mM MgCl2, 1 mg/ml X-gal) was added and the cells were incubated for 4 h to overnight at 37° C. and observed by microscopy (100× magnification) using an Axiovert S100 microscope (Zeiss) with an MC100 Spot camera (Zeiss).

Another experiment has as its system HCT 116 cells. In words: Flow cytometry of β-galactosidase transduction in HCT 116 cells (AlPcS2a, red light). The experiment is classed as cell-based, human. The method, then: (§1) HCT 116 and WiDr human colon carcinoma cells were obtained from American Type Culture Collection (ATCC nos. CCL-247 and CCL-218, respectively). Cells were cultured in RPMI 1640 medium containing 10% fetal calf serum, 100 U/ml penicillin, […] and 2 mM glutamine (all Gibco BRL, Paisley, UK) at 37° C. in 5% CO2 atmosphere.
(§2) The recombinant adenovirus AdHCMV-lacZ encoding the E. coli lacZ gene controlled by the human cytomegalovirus promoter was obtained by homologous recombination using the pJM17 system in 293 cells (Addison et al., 1997, J. Gen. Virol. 78: 1653-61). Recombinant vectors were plaque purified, grown to high titer in 293 cells and purified by CsCl banding (Hitt et al., 1995, Methods Mol. Genet. 7:13-30). The virus-solution was diluted in PBS containing 0.68 mM CaCl2 and 0.5 mM MgCl2 to the MOIs employed in the different experiments. […]
(§3) The cells were trypsinised, centrifuged, resuspended in 25 ml medium and incubated for 5 min at 37° C. […] The samples were kept on ice for 30-60 min, filtered through a […] mesh nylon filter and analyzed in a FACS-Calibur flow cytometer (Becton Dickinson). […] Fluorescein-fluorescence was measured through a 510-530 nm filter after excitation with an argon laser (15 mW, 488 nm). […] The data were analyzed with the CELLQuest Software (Becton Dickinson).

For the next experiment, the system named is WiDr cells. In words: Flow cytometry of β-galactosidase transduction in WiDr cells (AlPcS2a, red light). As to conditions: photochemical treatment alone (Ad−, S+). The experiment is classed as cell-based, human. On the procedure: as §1, §2, §3

In the case of `Nc1nc(O)c2ncn(COC(CO)CO)c2n1` [GCV, ganciclovir], in experiment [1] (control: photosensitizer + GCV, no AdV-TK), the “GCV-mediated cell killing (cell survival, MTT)” value is given as “no such effect”.

As for “aluminum phthalocyanine with 2 sulfonate groups on adjacent rings [AlPcS2a]”, the “β-galactosidase expressing cells (X-gal staining, microscopy)” value in experiment [2] is given as “No positive cells”. The “percentage of β-galactosidase positive cells” value in the experiment on HCT 116 cells (Ad−, S+, 8 min light) turned out to be 0.4%. In addition, the “mean fluorescence in non-infected cells” value in the experiment on HCT 116 cells (photochemical treatment (AlPcS2a + light), no adenovirus) was found to be 12 RFU. Moreover, the “change in percentage of positive cells” value in the experiment on WiDr cells is given as “did not significantly change”. Also, the “GCV-mediated cell killing (cell survival, MTT)” value in experiment [1] (control: only photosensitizer treatment) was “no such effect”.

Values taken from patent US7521239B2, “Photochemical internalization for virus-mediated molecule delivery into the cyosol” (priority 2000, dated 2009).
